Laboratory results published in ChEMBL document CHEMBL1158453 (J Med Chem, 2009).

How the values were obtained:
Rattus norvegicus [1] = assay: Cmax in Wistar rat plasma assessed as metformin level at 67 mg/kg, iv; assay type: ADME, organism-based; parameters: dose 67 mg/kg, route intravenous; details: in vivo
[2] = Metabolic stability in human serum assessed as compound degradation to metformin after 24 hrs by HPLC; assay type: ADME, cell-free; details: read-out: Activity
[3] = Metabolic stability in rat serum assessed as compound degradation to metformin after 24 hrs by HPLC; assay type: ADME, cell-free; details: read-out: Activity
Rattus norvegicus [4] = assay: AUC (0 to infinity) in Wistar rat plasma assessed as metformin level at 100 mg/kg, po; assay type: ADME, organism-based; parameters: time infinity, dose 100 mg/kg, route oral; details: in vivo
[5] = Metabolic stability in 20% rat liver homogenate assessed as compound degradation to metformin after 24 hrs by HPLC; assay type: ADME, tissue-based; details: 20% liver homogenate, read-out: Activity
[6] = Chemical stability in 50 mM acetate buffer at pH 4.0 at 37 degC assessed as compound degradation to metformin after 4 weeks by HPLC; assay type: physicochemical; details: read-out: Activity
Rattus norvegicus [7] = assay: Tmax in Wistar rat plasma assessed as metformin level at 100 mg/kg, po; assay type: ADME, organism-based; parameters: dose 100 mg/kg, route oral; details: in vivo
Rattus norvegicus [8] = assay: Cmax in Wistar rat plasma assessed as metformin level at 100 mg/kg, po; assay type: ADME, organism-based; parameters: dose 100 mg/kg, route oral; details: in vivo
[9] = Chemical stability in 50 mM phosphate buffer at pH 7.4 at 37 degC assessed as compound degradation to metformin after 4 weeks by HPLC; assay type: physicochemical; details: read-out: Activity
Rattus norvegicus [10] = assay: Oral bioavailability in Wistar rat assessed as metformin level at 100 mg/kg; assay type: ADME, organism-based; details: in vivo
[11] = Chemical stability in 50 mM HCl buffer at pH 1.0 at 37 degC assessed as half life by HPLC; assay type: physicochemical
[12] = Chemical stability in 50 mM borate buffer at pH 9.0 at 37 degC assessed as compound degradation to metformin after 4 weeks by HPLC; assay type: physicochemical; details: read-out: Activity
[13] = Octanol-water distribution coefficient, log D at pH 4 by HPLC; assay type: physicochemical
[14] = Octanol-water distribution coefficient, log D at pH 7.4 by HPLC; assay type: physicochemical
[15] = Chemical stability in 15 mM hydrogen peroxide solution at pH 7.4 at 37 degC assessed as half life by HPLC; assay type: physicochemical
Rattus norvegicus [16] = assay: AUC (0 to infinity) in Wistar rat plasma assessed as metformin level at 67 mg/kg, iv; assay type: ADME, organism-based; parameters: time infinity, dose 67 mg/kg, route intravenous; details: in vivo
Rattus norvegicus [17] = assay: Tmax in Wistar rat plasma assessed as metformin level at 67 mg/kg, iv; assay type: ADME, organism-based; parameters: dose 67 mg/kg, route intravenous; details: in vivo
[18] = Chemical stability in 50 mM acetate buffer at pH 4.0 at 37 degC assessed as half life by HPLC; assay type: physicochemical
[19] = Chemical stability in 50 mM phosphate buffer at pH 7.4 at 37 degC assessed as half life by HPLC; assay type: physicochemical
[20] = Metabolic stability in 20% rat liver homogenate assessed as half life by HPLC; assay type: ADME, tissue-based; details: 20% liver homogenate
[21] = Chemical stability in 50 mM borate buffer at pH 9.0 at 37 degC assessed as half life by HPLC; assay type: physicochemical
Serum = assay: Metabolic stability in human serum assessed as half life by HPLC; assay type: ADME, cell-free
[22] = Metabolic stability in rat serum assessed as half life by HPLC; assay type: ADME, cell-free
Rattus norvegicus [23] = assay: AUC (0 to infinity) in Wistar rat plasma at 35 mg/kg, iv; assay type: ADME, organism-based; parameters: time infinity, dose 35 mg/kg, route intravenous; details: in vivo
[24] = Tmax in Wistar rat plasma at 35 mg/kg, iv; assay type: ADME, organism-based; parameters: dose 35 mg/kg, route intravenous
[25] = Cmax in Wistar rat plasma at 35 mg/kg, iv; assay type: ADME, organism-based; parameters: dose 35 mg/kg, route intravenous
in vivo [26] = details: Wistar, rat, plasma, po, 140 mg/kg
Description: AUC (0 to infinity) in Wistar rat plasma at 140 mg/kg, po

in vivo [27] = details: Wistar, rat, plasma, po, 140 mg/kg; remark: listed apart in the source
Description: Tmax in Wistar rat plasma at 140 mg/kg, po

in vivo [28] = details: Wistar, rat, plasma, po, 140 mg/kg; remark: listed apart in the source
Description: Cmax in Wistar rat plasma at 140 mg/kg, po

CN(C)C(=N)/N=C(\N)NSC1CCCCC1
Cmax (Rattus norvegicus [1]): 3000 ng/mL
metabolised at 24 h [2]: 10%
metabolised at 24 h [3]: 10%
AUC (Rattus norvegicus [4]): 275 µg·min/mL
metabolised at 24 h [5]: 10%
degraded at 672 h [6]: 10%
Tmax (Rattus norvegicus [7]): 60 min
Cmax (Rattus norvegicus [8]): 1300 ng/mL
degraded at 672 h [9]: 10%
F (Rattus norvegicus [10]): 64.5%
half-life [11]: 478 min
degraded at 672 h [12]: 40%
logD [13]: -1.1
logD [14]: 0.49
half-life [15]: 35.8 min
AUC (Rattus norvegicus [16]): 291 µg·min/mL
Tmax (Rattus norvegicus [17]): 10 min

CN(C)C(=N)/N=C(\N)NSc1ccccc1
half-life [18]: 78.6 h
half-life [19]: 78.6 h
half-life [20]: 0.25 min
half-life [11]: 12.1 min
logD [13]: -0.7
half-life [21]: 18.1 min
logD [14]: -0.76
half-life [15]: 14.2 min
t1/2 (Serum): 0.0623 min
half-life [22]: 36.8 min

CN(C)C(=N)N=C(N)N [METFORMIN]
AUC (Rattus norvegicus [23]): 170 µg·min/mL
Tmax [24]: 1 min
Cmax [25]: 20900 ng/mL
AUC(0-inf) (in vivo [26]): 4820 ng·h/mL
Tmax (in vivo [27]): 50 min
Cmax (in vivo [28]): 1700 ng/mL
